Patent US20030166583A1, “Dermal cytochrome P450 1A inhibitors and enhancers” (priority 2002, published 2003)
“Also recorded” adds a separate entry of the source.

Tests used:
liver CYP1A = assay: Liver microsomal CYP1A enzymatic activity, inhibition or enhancement; conditions: for enhancing effect on liver CYP1A activity, in words / inhibitory effect on liver CYP1A activity, in words: at certain concentration (1, 10 or 100 μM); for liver CYP1A activity (% of control group): liver microsomes
Protocol: (§3) Nude mice were sacrificed by decapitation. The skin and liver were immediately removed and kept in ice bath or 4° C. […] Connective tissue, blood, and fat were carefully removed from the tissue. Excess water content was removed from the homogenized tissue by tissue papers before the tissue was weighed.
(§4) The suspension of homogenized tissue in potassium chloride solution was transferred into a Teflon pestle-glass homogenizer for homogenization for six (6) times. Then, potassium chloride solution was added into the homogenized suspension to bring the volume to about four (4) times of the homogenized suspension. The diluted suspension was 5 transferred into a centrifuge tube and centrifuged at 4° C., 9000 xg, for twenty (20) minutes. The supernatant containing microsomes from skin or liver tissue and other soluble substance were removed and the volume of the supernatant was brought up to four (4) times of the weight of the tissue by adding potassium chloride solution. The diluted supernatant was transferred into a centrifuge tube and centrifuged at 4° C., 100,000 xg, for one (1) hour (Beckman L8-80M). The precipitate containing the microsomes was obtained. Potassium chloride solution was added into the precipitate to bring the volume up to four (4) times of the weight of the tissue, and the suspension was centrifuged at 4° C., 100,000 xg for one (1) hour, to obtain the washed microsomes, which were stored at −78° C. in 0.1M KH2PO4-K2HPO4 buffer (pH=7.4).
(§5) The enzymatic activity of CYP1A was determined based on the activity of 7-ethoxyresorufin-O-deethylase (i.e., for CYP1A) and 7-methoxyresorufin-O-demethylase (i.e., CYP1A2). […] Except for the blank group, the reaction was triggered by adding 0.54 μM NADPH. In the test tube (16×100 mm), the reaction was carried out for ten (10) minutes at constant temperature (37° C.) with vibration and without light Methanol 2.5 ml was added into the reaction mixture to stop the reaction. Protein precipitate was removed from the reaction mixture by centrifuging the reaction mixture at 180 xg for ten (10) minutes. The supernatant was tested for florescent intensity with 550 nm as the excitation wavelength and 585 nm the emission wavelength. The florescent intensity was compared with 0.01 μM-0.1 μM standard Rhodamine B solution to obtain the reading of the CYP1A enzyme activity.

CYP1A [1] = assay: as above; conditions: nude, mouse, liver microsomes, pH 7.8, probe 7-ethoxyresorufin
Protocol: as §3, §4, §5

CYP1A [2] = assay: in vitro; conditions: nude, mouse
Source text: (§1) Nude mice were sacrificed by decapitation.
(§2) The precipitate containing the microsomes was obtained.

dermal CYP1A = assay: Dermal microsomal CYP1A enzymatic activity (7-ethoxyresorufin-O-deethylase), inhibition or enhancement; conditions: for inhibitory effect on dermal CYP1A activity, in words: at certain concentration (1, 10 or 100 μM); for enhancing effect on dermal CYP1A activity, in words: at certain concentrations (1, 10 or 100 μM)
Source text: as §1, §2

[3] = pH 7.8, dermal CYP1A activity (% of control group)
[4] = compound 1 μM, skin microsomes, mean of at least 3 repeats
[5] = compound 10 μM, skin microsomes, mean of at least 3 repeats
[6] = compound 100 μM, skin microsomes, mean of at least 3 repeats
[7] = pH 7.8, inhibition of dermal CYP1A activity

SMILES | enhancing effect on liver CYP1A activity, in words (liver CYP1A) | inhibitory effect on dermal CYP1A activity, in words (dermal CYP1A) | liver CYP1A activity (% of control group) (liver CYP1A; compound 1 μM) [%] | liver CYP1A activity (% of control group) (liver CYP1A; compound 10 μM) [%] | liver CYP1A activity (% of control group) (liver CYP1A; compound 100 μM) [%] | dermal CYP1A activity (% of control group) (dermal CYP1A; [4]) [%] | dermal CYP1A activity (% of control group) (dermal CYP1A; [5]) [%] | dermal CYP1A activity (% of control group) (dermal CYP1A; [6]) [%] | further results
C[C@@]12C[C@@]3(O)O[C@@H](O1)[C@]1(COC(=O)c4ccccc4)[C@H]3C[C@@]12O[C@@H]1O[C@H](CO)[C@@H](O)[C@H](O)[C@H]1O [Paeoniflorin] | enhancing effect |  |  |  |  |  |  |  | activity at 10 min, 1 µM (CYP1A [1]): 123%; activity at 10 min, 10 µM (CYP1A [1]): 124%; activity at 10 min, 100 µM (CYP1A [1]): 121%; activity at 10 min, 1 µM (CYP1A [2]; [3]): 91%; activity at 10 min, 10 µM (CYP1A [2]; [3]): 105%; activity at 10 min, 100 µM (CYP1A [2]; [3]): 104%
C=CC(=C)CCC=C(C)C [Beta-Myrcene] | enhancing effect |  |  |  |  |  |  |  | inhibitory effect on liver CYP1A activity, in words (liver CYP1A): inhibitory effects; activity at 10 min, 1 µM (CYP1A [1]): 82%; activity at 10 min, 10 µM (CYP1A [1]): 98%; activity at 10 min, 100 µM (CYP1A [1]): 100%; activity at 10 min, 1 µM (CYP1A [2]; pH 7.8): 101%; activity at 10 min, 10 µM (CYP1A [2]; pH 7.8): 78.2%; activity at 10 min, 100 µM (CYP1A [2]; pH 7.8): 73.6%; inhibition at 10 min, 100 µM (CYP1A [2]; pH 7.8): ~26%
O=c1cc(-c2ccc(O)c(O)c2)oc2cc(O)c([C@@H]3O[C@H](CO)[C@@H](O)[C@H](O)[C@H]3O)c(O)c12 [homoorientin] |  | strong inhibitory effects |  |  |  |  |  |  | 
Oc1cc(O)c2c(c1)O[C@H](c1ccc(O)c(O)c1)[C@H](O)C2 [(−)-Epicatechin] | enhancing effect; also recorded: most enhancing effect | inhibition effects | 133.54 | 139.91 | 147.44 | 85.69 | 121.77 | 129.82 | enhancing effect on liver CYP1A activity (liver CYP1A; compound 1 μM): about 34%; enhancing effect on dermal CYP1A activity, in words (dermal CYP1A): enhancing effects; also recorded: strongest enhancing effect; enhancement of dermal CYP1A activity (dermal CYP1A; compound 10 μM): 22%; enhancement of dermal CYP1A activity (dermal CYP1A; compound 100 μM): about 30%; enhancement of dermal microsomal CYP1A activity (dermal CYP1A; concentration between about 10 μM and about 100 μM): at least 20%
O=c1cc(-c2ccc(O)c(O)c2)oc2cc(O[C@@H]3O[C@H](CO)[C@@H](O)[C@H](O)[C@H]3O)cc(O)c12 [Luteolin-7-glucoside] | enhancing effect | inhibition effects | 109.79 | 119.53 | 123.78 | 105.07 | 88.05 | 2.53 | inhibitory effect on dermal CYP1A activity, in words (dermal CYP1A; listed as luteolin-7-glycoside): strongest inhibitory effect; also recorded: most effective inhibitors; enhancing effect on dermal CYP1A activity, in words (dermal CYP1A): enhancing effects; inhibition of dermal CYP1A activity (dermal CYP1A; compound 100 μM, 100 µM): about 97%
O=C(O)c1cc(O)c(O)c(O)c1 [Gallic acid] |  |  |  |  |  |  |  |  | activity at 10 min, 10 µM (CYP1A [1]): 123%; activity at 10 min, 100 µM (CYP1A [1]): 105%; activity at 10 min, 1 µM (CYP1A [2]; [3]): 102%; activity at 10 min, 10 µM (CYP1A [2]; [3]): 107%; activity at 10 min, 100 µM (CYP1A [2]; [3]): 88.2%; inhibition at 10 min, 100 µM (CYP1A [2]; [7]): ~12%
COc1c(O)cc2oc(Oc3ccc(O)cc3)cc(=O)c2c1O [capillarisin, Capillarisin] |  | strong inhibitory effects |  |  |  |  |  |  | 
O=C(O)/C=C/c1ccc(O)cc1O [Umbellic acid] | enhancing effect |  |  |  |  |  |  |  | activity at 10 min, 100 µM (CYP1A [1]): 121%
C=C[C@H]1[C@H](O[C@@H]2O[C@H](CO)[C@@H](O)[C@H](O)[C@H]2O)OC=C2C(=O)OCC[C@]21O [Swertiamarin] |  |  |  |  |  |  |  |  | activity at 10 min, 1 µM (CYP1A [2]; pH 7.8): 98.5%; activity at 10 min, 10 µM (CYP1A [2]; pH 7.8): 96.5%; activity at 10 min, 100 µM (CYP1A [2]; pH 7.8): 105%
COc1ccc([C@@H]2CC(=O)c3c(O)cc(O[C@@H]4O[C@H](CO[C@@H]5O[C@@H](C)[C@H](O)[C@@H](O)[C@H]5O)[C@@H](O)[C@H](O)[C@H]4O)cc3O2)cc1O [Hesperidin] | enhancing effect | inhibition effects | 99.65 | 87.38 | 102.94 | 62.61 | 52.72 | 57.75 | inhibitory effect on liver CYP1A activity, in words (liver CYP1A): inhibitory effects; inhibition of dermal CYP1A activity (dermal CYP1A; compound 10 μM): about 47%
O=C(O)[C@H]1O[C@@H](Oc2cc3oc(-c4ccccc4)cc(=O)c3c(O)c2O)[C@H](O)[C@@H](O)[C@@H]1O [Baicalin] | enhancing effect | inhibition effects | 106.19 | 90.79 | 106.06 | 90.14 | 82.85 | 75.91 | inhibitory effect on liver CYP1A activity, in words (liver CYP1A): inhibitory effects; inhibition of dermal CYP1A activity (dermal CYP1A; compound 100 μM): about 24%
Oc1cc(O)c2c(c1)O[C@H](c1ccc(O)c(O)c1)[C@@H](O)C2 [(+)-Catechin] | enhancing effect | inhibition effects | 90.00 | 120.23 | 116.48 | 78.10 | 91.97 | 99.99 | inhibitory effect on liver CYP1A activity, in words (liver CYP1A): inhibitory effects; enhancing effect on dermal CYP1A activity, in words (dermal CYP1A): enhancing effects; inhibition of dermal CYP1A activity (dermal CYP1A; compound 1 μM): about 22%
Oc1cc(O)c2c(c1)O[C@@H](c1ccc(O)c(O)c1)[C@@H](O)C2 [(+)-Epicatechin] | enhancing effect | inhibition effects | 124.29 | 129.86 | 130.95 | 65.55 | 86.15 | 105.09 | enhancing effect on dermal CYP1A activity, in words (dermal CYP1A): enhancing effects; inhibition of dermal CYP1A activity (dermal CYP1A; compound 1 μM): about 34%
C[C@@H]1O[C@@H](O[C@H]2[C@H](Oc3cc(O)c4c(c3)O[C@H](c3ccc(O)cc3)CC4=O)O[C@H](CO)[C@@H](O)[C@@H]2O)[C@H](O)[C@H](O)[C@H]1O [Narigin] | enhancing effect; also recorded: most enhancing effect | inhibition effects | 138.88 | 119.79 | 120.55 | 149.99 | 103.30 | 77.31 | enhancing effect on liver CYP1A activity (liver CYP1A; compound 100 μM): about 21%; enhancing effect on dermal CYP1A activity, in words (dermal CYP1A): enhancing effects; also recorded: strongest enhancing effect; enhancement of dermal CYP1A activity (dermal CYP1A; compound 1 μM): about 50%; inhibition of dermal CYP1A activity (dermal CYP1A; compound 100 μM): about 23%
O=c1cc(-c2ccccc2)oc2cc(O)c(O)c(O)c12 [Baicalein] | enhancing effect | inhibition effects | 110.67 | 114.18 |  | 64.73 | 48.84 | 55.82 | inhibition of dermal CYP1A activity (dermal CYP1A; compound 10 μM): about 47%
O=C/C=C/c1ccccc1 [Trans-cinnamaldehyde] |  |  |  |  |  |  |  |  | inhibition at 10 min, 100 µM (CYP1A [2]; pH 7.8): ~80%
COc1ccc([C@@H]2CC(=O)c3c(O)cc(O)cc3O2)cc1O [Hesperetin] |  |  |  |  |  |  |  |  | dose dependence of the inhibitory effect on dermal CYP1A (dermal CYP1A): the higher the hesperetin concentration, the lower the inhibitory effect; dermal CYP1A activity (% of control group) (dermal CYP1A; nude, mouse, 10 min, 1 µM, pH 7.8): 6.89%; activity at 10 min, 1 µM (CYP1A [2]; [3]): ~7%; activity at 10 min, 10 µM (CYP1A [2]; [3]): 24.6%; activity at 10 min, 100 µM (CYP1A [2]; [3]): 66%; inhibition at 10 min, 1 µM (CYP1A [2]; [7]): > 90%
C=C(C)C1CC=C(C)CC1 (single isomer, unassigned; (+)) [(+)-Limonene] |  | inhibition effects |  |  |  |  |  |  | enhancing effect on dermal CYP1A activity, in words (dermal CYP1A): enhancing effects; inhibition of dermal CYP1A activity (dermal CYP1A; compound 1 μM): about 51%
O=C1C[C@@H](c2ccc(O)cc2)Oc2cc(O)cc(O)c21 [Narigenin] | enhancing effect | inhibition effects | 116.45 | 107.17 | 41.64 | 29.41 | 34.90 | 17.26 | inhibitory effect on liver CYP1A activity, in words (liver CYP1A): inhibitory effects; inhibition of dermal CYP1A activity (dermal CYP1A; compound 100 μM): about 83%
O=c1cc(-c2ccc(O)c(O)c2)oc2cc(O)cc(O)c12 [Luteolin] |  |  |  |  |  |  |  |  | activity at 10 min, 1 µM (CYP1A [1]): 115%; activity at 10 min, 10 µM (CYP1A [1]): 104%; activity at 10 min, 100 µM (CYP1A [1]): 33.4%; activity at 10 min, 1 µM (CYP1A [2]; [3]): 59.1%; activity at 10 min, 10 µM (CYP1A [2]; [3]): 19.4%; activity at 10 min, 100 µM (CYP1A [2]; [3]): 10.4%; inhibition at 10 min, 100 µM (CYP1A [2]; [7]): ~90%
O=c1c(-c2ccc(O)cc2)coc2cc(O)ccc12 [Daidzein] |  |  |  |  |  |  |  |  | activity at 10 min, 1 µM (CYP1A [1]): 109%; activity at 10 min, 10 µM (CYP1A [1]): 112%; activity at 10 min, 100 µM (CYP1A [1]): 135%; activity at 10 min, 1 µM (CYP1A [2]; [3]): 77.5%; activity at 10 min, 10 µM (CYP1A [2]; [3]): 71.7%; activity at 10 min, 100 µM (CYP1A [2]; [3]): 77.2%; inhibition at 10 min, 10 µM (CYP1A [2]; [7]): ~28%
